Measurements published in ChEMBL document CHEMBL1201862, “PubChem BioAssay data set” (2004).
The source made the active and inactive calls.

Assays:
[1] = target: Sphingosine 1-phosphate receptor 4 (Homo sapiens, UniProt O95977); experiment: Fluorescence dose response cell-based high throughput screening assay for antagonists of the Sphingosine 1-Phosphate Receptor 4 (S1P4). [Related pubchem assays: 1524 (Confirmation in triplicates.), 1510 (Primary screen.)]; assay type: functional
[2] = Trypanosoma cruzi growth suppression in host cells – NIH3T3 host cells, beta-gal luminescence, confirmation (AID 2044); assay type: functional, cell-based;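 also: intracellular parasites grown in NIH/3T3 mouse fibroblasts as host cells; luminescent beta-galactosidase reporter signal from transgenic T. cruzi replicating inside host cells; inhibitors lower the luminescence signal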
[3] = target: Sphingosine 1-phosphate receptor 1 (Homo sapiens, UniProt P21453); assay type: functional;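 also: Tango beta-arrestin reporter U2OS cells stimulated with S1P near its EC80; inhibitor potency meaning antagonism of receptor activation by the natural agonist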
[4] = viability of PTEN-deleted HCT116 cells – cell-based, HCT116 PTEN knockout, dose response (AID 1047); assay type: functional;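 also: HCT116 colon tumor cells with PTEN knocked out; cells exposed to compound for 60 hours before readout; potency for loss of cell viability measured by luminescence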
[5] = NIH3T3 cell viability loss – ATP luminescence, mouse fibroblasts, counter-screen, dose response (AID 2010); assay type: functional, cell-based;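 also: cells exposed to compound for about 90 hours before reading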
[6] = tested on: HEK293; experiment: cells; assay type: functional, cell-based; settings: Homo sapiens
[7] = tested on: HEK293; experiment: NOD2 signaling inhibitors in MDP-stimulated cells, cell-based, uHTS, luminescence (AID 2001); assay type: functional; settings: Homo sapiens
[8] = tested on: HeLa; experiment: Cytotoxicity counterscreen assay for transcriptional activators of heat shock protein 70 (Hsp70). [Related pubchem assays: 1203, 1252 ]; assay type: functional; settings: Homo sapiens;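 also: cells exposed to compound for 16 hours before readout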
[9] = tested on: HEK293; experiment: inhibition of NOD1-driven NF-kB reporter – cell-based, luminescence, uHTS, primary screen (AID 1578); assay type: functional; settings: Homo sapiens
[10] = target: T1, Heat shock factor protein 1 (Mus musculus, UniProt P38532); experiment: decrease of HSF1-responsive luciferase luminescence – cell-based, NIH3T3, dose retest, confirmation (AID 2382); assay type: functional;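 also: NIH3T3 fibroblasts with HSF1-driven luciferase reporter stressed by proteasome inhibitor MG132; luminescence from HSF1-driven luciferase expression after 8 hours of MG132 stress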
T1 sequence (P38532 whole entry): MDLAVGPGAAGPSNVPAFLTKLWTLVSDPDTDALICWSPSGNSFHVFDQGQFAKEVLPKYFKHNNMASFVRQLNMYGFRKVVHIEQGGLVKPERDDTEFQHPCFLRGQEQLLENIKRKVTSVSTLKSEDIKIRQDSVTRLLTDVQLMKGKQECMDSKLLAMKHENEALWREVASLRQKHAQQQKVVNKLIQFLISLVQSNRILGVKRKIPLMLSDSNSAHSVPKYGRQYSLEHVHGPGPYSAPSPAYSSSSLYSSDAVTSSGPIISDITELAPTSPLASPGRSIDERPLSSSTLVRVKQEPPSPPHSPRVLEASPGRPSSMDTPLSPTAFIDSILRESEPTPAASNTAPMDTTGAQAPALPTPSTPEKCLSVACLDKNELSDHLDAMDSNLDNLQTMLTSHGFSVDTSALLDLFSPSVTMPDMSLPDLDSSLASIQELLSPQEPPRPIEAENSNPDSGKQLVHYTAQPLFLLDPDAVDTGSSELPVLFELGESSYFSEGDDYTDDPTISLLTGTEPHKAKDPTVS

[11] = reduction of Shn3 3'UTR-driven luciferase in osteoblasts – cell-based, Clone20 osteoblasts, firefly luciferase, cherry-picked, dose response (AID 624132); assay type: functional;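 also: firefly luciferase luminescence from reporter carrying the Shn3 3'UTR in osteoblasts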
[12] = viability of HCT116 lacking mutant beta-catenin – cell-based, human colon tumor, dose response (AID 1045); assay type: functional;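 also: HCT116 colon tumor cells with beta catenin knocked out; cells exposed to compound for 60 hours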
[13] = non-specific 3'UTR reporter inhibition in Clone20-Shn3RL – cell-based, Renilla luciferase, cherry-picked, counter-screen for Shn3 inhibitor project, dose response (AID 624133); assay type: functional
[14] = loss of viability in HepG2 cells – cell-based, CellTiter-Glo, cherry-picked, cytotoxicity control for Shn3 inhibitor project, dose response (AID 624134); assay type: functional
[15] = tested on: HEK293; experiment: cells; assay type: functional, cell-based; settings: Homo sapiens; remark: listed apart in the source
[16] = target: Beta-2 adrenergic receptor (Homo sapiens, UniProt P07550); experiment: ADRB2 activation measured by internalization – cell-based, FAP fluorogen, flow cytometry, cherry pick 1, dose response (AID 588763); assay type: functional
[17] = tested on: INS1; experiment: INS-1E survival protection against cytokine death – cell-based, luminescence, retest, dose response (AID 449756); assay type: functional; settings: Rattus norvegicus;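 also: cell death triggered by IL-1 beta plus TNF-alpha plus IFN-gamma mixture; protective hits raise ATP signal compared with cytokine alone wells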
[18] = target: T2, SUMO-activating enzyme (Homo sapiens, UniProt Q9UBT2); experiment: blockers of SAE1/SAE2–UBC9 SUMO transfer – biochemical, HTRF, uHTS, primary screen (AID 2006); assay type: protein-complex assay
[19] = target: Induced myeloid leukemia cell differentiation protein Mcl-1 (Homo sapiens, UniProt Q07820); assay type: functional
[20] = target: T2, SUMO-activating enzyme; experiment: blockers of UBC9-mediated SUMO conjugation – biochemical, AlphaScreen, SUMOylation inhibitor project, confirmation (AID 2018); assay type: functional
[21] = CCR5-tropic HIV-1 fusion blockers – cell-based, CCR5-tropic Env, dose response (AID 2279); assay type: functional
[22] = Luminescence Cell-Based Dose Confirmation HTS to Identify Inhibitors of Platelet Dense Granule Release. [Related pubchem assays: 1663 (Primary HTS), 1678 (Summary of Project)]; assay type: functional
[23] = tested on: A-375; experiment: MITF: Counter assay: A375 proliferation Measured in Cell-Based System Using Plate Reader - 2084-03_Inhibitor_Dose_DryPowder_Activity. [Related pubchem assays (depositor defined):AID488944]; assay type: functional; settings: Homo sapiens
[24] = Luminescence-based counterscreen assay for KLF5 inhibitors: dose response cell-based high throughput screening assay to identify cytotoxic compounds using the IEC-6 intestinal epithelial cell line. [Related pubchem assays: 1700 (Primary screen.), 1834 (Confirmation screen.), 1858 (Summary AID.), 1905 (Counterscreen.)]; assay type: functional
[25] = target: Luciferin 4-monooxygenase (Photinus pyralis, UniProt P08659); experiment: inhibition of purified Photinus pyralis luciferase – biochemical, luminescence, dose response (AID 1891)
[26] = general cell-killing toxicity readout – plate reader, dry powder samples, cytotoxicity control for PAX8 inhibitor project, dose response (AID 743021); assay type: functional, cell-based
[27] = HEK-293T viability loss after treatment – luminescence, T-cell screen hits, cytotoxicity control for TCR NF-kB inhibitor project, dose response (AID 489026); assay type: functional, cell-based;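 also: cells exposed to compound about 14 hours before the viability readout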
[28] = target: Paired box protein Pax-8 (Homo sapiens, UniProt Q06710); experiment: PAX8 transcriptional activity inhibition in RMG-I – RMG-I cells, luciferase, cherry-pick, dose response (AID 687027); assay type: functional, cell-based;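 also: luciferase reporter driven by Pax8 target thyroperoxidase promoter measured by SteadyGlo luminescence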
[29] = target: T3, Microphthalmia-associated transcription factor (Homo sapiens, UniProt O75030); experiment: reducers of TRPM1 reporter luminescence, concentration series – cell-based, SK-MEL-5, cherry-picked, set 3, MITF inhibitor project, dose response (AID 493073); assay type: functional;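 also: SK-MEL-5 melanoma cells with luciferase driven by the MITF target TRPM1 promoter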
T3 sequence (O75030 whole entry): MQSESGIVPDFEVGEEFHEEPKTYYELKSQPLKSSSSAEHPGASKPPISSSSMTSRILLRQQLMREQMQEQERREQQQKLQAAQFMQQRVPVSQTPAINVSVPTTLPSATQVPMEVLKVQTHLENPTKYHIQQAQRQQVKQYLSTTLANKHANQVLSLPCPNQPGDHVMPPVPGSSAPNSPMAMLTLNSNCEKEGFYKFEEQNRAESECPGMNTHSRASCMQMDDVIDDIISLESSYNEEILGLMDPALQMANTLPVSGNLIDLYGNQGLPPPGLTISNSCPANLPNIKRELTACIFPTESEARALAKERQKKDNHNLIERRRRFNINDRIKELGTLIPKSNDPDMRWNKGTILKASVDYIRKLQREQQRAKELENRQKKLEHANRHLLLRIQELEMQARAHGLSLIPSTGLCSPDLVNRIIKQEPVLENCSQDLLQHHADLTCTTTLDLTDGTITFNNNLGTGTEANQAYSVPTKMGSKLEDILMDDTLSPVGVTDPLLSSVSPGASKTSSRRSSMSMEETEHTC

T2 sequence (Q9UBE0 whole entry): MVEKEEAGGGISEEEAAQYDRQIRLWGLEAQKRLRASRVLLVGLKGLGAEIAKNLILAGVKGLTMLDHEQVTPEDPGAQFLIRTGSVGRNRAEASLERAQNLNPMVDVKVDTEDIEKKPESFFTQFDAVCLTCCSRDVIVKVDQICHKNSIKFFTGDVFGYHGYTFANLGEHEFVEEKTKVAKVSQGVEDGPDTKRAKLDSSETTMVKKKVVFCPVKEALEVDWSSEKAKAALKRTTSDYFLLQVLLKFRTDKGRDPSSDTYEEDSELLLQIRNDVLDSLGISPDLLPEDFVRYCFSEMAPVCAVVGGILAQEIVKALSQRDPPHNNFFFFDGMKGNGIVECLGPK
T2 sequence (Q9UBT2 whole entry): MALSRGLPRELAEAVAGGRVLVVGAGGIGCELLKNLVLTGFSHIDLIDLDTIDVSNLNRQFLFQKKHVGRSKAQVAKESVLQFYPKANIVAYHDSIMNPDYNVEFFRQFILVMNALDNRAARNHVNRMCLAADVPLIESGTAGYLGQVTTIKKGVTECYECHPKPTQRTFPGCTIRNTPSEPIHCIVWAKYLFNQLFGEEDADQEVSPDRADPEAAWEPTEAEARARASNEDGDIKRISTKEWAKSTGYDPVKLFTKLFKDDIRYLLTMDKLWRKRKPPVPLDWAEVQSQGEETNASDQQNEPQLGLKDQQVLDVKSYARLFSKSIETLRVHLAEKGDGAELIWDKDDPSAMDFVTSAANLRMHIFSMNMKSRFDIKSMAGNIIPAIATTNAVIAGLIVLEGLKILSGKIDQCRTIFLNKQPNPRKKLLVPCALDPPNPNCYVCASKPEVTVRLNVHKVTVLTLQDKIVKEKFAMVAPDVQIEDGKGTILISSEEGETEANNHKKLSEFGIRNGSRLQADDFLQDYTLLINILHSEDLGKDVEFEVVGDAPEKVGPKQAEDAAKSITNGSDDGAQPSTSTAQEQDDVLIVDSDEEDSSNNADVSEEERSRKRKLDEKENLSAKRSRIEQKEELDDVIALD
Sphingosine 1-phosphate receptor 1, sequence (P21453 whole entry): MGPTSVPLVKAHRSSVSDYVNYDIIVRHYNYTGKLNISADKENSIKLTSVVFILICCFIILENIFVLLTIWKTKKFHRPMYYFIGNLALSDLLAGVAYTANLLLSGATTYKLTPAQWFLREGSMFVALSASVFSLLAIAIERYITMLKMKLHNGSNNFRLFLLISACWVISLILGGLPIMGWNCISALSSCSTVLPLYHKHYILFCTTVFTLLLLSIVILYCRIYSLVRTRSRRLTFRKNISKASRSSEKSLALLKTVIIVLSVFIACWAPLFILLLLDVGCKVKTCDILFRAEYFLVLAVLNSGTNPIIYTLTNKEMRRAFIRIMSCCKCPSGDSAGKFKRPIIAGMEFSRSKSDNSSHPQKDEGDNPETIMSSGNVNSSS
Sphingosine 1-phosphate receptor 4, sequence (O95977 whole entry): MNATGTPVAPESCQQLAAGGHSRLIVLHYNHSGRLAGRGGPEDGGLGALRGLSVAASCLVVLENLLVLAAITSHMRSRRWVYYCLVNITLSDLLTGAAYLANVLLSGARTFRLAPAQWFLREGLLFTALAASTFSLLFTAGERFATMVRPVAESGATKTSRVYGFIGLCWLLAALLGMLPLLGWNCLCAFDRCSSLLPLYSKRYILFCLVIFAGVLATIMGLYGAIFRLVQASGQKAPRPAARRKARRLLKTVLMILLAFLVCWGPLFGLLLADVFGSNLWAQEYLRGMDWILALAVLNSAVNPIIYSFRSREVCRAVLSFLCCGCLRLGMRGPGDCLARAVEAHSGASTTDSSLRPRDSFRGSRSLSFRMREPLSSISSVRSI
Induced myeloid leukemia cell differentiation protein Mcl-1, sequence (Q07820 whole entry): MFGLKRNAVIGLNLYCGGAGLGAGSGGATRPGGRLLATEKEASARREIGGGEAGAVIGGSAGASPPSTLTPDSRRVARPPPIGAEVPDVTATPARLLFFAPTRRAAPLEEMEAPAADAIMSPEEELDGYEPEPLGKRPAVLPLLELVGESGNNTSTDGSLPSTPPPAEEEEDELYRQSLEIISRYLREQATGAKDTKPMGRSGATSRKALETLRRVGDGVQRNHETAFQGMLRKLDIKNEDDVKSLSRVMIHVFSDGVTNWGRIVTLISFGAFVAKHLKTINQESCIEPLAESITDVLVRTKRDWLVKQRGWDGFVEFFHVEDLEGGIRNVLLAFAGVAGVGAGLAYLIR
Luciferin 4-monooxygenase, sequence (P08659 whole entry): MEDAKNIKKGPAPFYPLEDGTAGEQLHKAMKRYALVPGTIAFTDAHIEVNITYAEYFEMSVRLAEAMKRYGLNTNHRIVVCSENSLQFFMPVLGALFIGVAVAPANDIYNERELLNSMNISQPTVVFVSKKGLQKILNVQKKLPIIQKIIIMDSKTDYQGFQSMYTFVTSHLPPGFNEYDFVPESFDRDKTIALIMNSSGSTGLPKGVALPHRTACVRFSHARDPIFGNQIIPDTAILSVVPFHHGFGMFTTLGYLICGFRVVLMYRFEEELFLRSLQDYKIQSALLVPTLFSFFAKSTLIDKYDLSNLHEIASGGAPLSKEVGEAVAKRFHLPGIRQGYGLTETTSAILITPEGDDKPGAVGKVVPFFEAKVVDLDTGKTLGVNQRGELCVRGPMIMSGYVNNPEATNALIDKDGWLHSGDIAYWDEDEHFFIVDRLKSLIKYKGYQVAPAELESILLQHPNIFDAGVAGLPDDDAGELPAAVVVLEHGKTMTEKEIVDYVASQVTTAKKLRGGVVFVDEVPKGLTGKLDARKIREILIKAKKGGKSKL
Paired box protein Pax-8, sequence (Q06710 whole entry): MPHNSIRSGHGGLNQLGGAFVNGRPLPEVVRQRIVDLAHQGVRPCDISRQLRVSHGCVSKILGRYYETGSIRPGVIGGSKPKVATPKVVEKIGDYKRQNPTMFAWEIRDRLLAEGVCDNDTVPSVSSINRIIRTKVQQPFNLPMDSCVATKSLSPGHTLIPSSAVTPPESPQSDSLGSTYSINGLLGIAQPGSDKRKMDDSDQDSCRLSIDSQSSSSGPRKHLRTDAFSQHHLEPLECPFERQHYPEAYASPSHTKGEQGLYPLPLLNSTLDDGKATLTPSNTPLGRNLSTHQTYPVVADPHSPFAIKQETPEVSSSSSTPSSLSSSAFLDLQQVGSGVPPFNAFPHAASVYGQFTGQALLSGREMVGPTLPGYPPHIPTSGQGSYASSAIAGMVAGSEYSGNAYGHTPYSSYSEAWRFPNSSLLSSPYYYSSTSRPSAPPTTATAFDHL
Beta-2 adrenergic receptor, sequence (P07550 whole entry): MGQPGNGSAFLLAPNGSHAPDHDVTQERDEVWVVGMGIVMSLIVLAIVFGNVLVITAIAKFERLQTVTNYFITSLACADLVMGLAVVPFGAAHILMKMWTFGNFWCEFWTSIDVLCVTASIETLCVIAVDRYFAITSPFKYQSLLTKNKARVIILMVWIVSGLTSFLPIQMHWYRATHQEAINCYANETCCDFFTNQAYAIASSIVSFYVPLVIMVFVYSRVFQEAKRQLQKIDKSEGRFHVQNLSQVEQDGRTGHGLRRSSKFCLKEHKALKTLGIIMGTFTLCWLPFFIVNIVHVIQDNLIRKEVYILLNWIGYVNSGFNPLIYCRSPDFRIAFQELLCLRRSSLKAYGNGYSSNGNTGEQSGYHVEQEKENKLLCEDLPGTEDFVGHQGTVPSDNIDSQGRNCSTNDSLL

Q: With Cc1ccc(-c2nc(NC(=O)c3nn(C)cc3[N+](=O)[O-])sc2C)cc1C as the compound, how does the IC50 [1] read?
A: 1 µM (active)

Q: And the EC50 [2]?
A: 2.7 µM (active)

Q: What about the IC50 [3] of the same compound?
A: 18.1 µM (not active)

Q: What about the EC50 [4] of the same compound?
A: 0.224 µM (active)

Q: What about the EC50 [5] of the same compound?
A: 4.71 µM (active)

Q: What about the IC50 [6] of the same compound?
A: 17.7 µM (active)

Q: What about the IC50 [7] of the same compound?
A: 3.82 µM (active)

Q: And the CC50 [8]?
A: 2.08 µM (active)

Q: What about the EC50 [9] of the same compound?
A: 9.93 µM (active)

Q: And the EC50 [10]?
A: 4.28 µM (inconclusive)

Q: And the AC50 [11]?
A: 2.25 µM (active)

Q: And the EC50 [12]?
A: 0.207 µM (active)

Q: And the AC50 [13]?
A: 6.06 µM (active)

Q: What about the AC50 [14] of the same compound?
A: 18.2 µM (active)

Q: What about the IC50 [15] of the same compound?
A: 6.72 µM (active)

Q: And the EC50 [16]?
A: 64.1 µM (inactive)

Q: And the AC50 [17]?
A: 3.62 µM (active)

Q: For CN(C)S(=O)(=O)c1cccc(-c2nn(-c3ccccc3)cc2/C=C2\SC(=S)NC2=O)c1, which IC50 [18] is on record?
A: 10.6 µM (active)

Q: And the IC50 [19]?
A: 1.44 µM (active)

Q: What about the IC50 [20] of the same compound?
A: 7.59 µM (active)

Q: What about the IC50 [21] of the same compound?
A: 7.08 µM (active)

Q: Which results are given for COc1cccc(/C=N/Nc2ccc(C(=O)O)cc2)c1O?
A: EC50 [22]: 0.17 µM (active); AC50 [23]: 29.9 µM (active); IC50 [24]: > 39.8 µM (not active); EC50 [25]: 0.693 µM (active); AC50 [26]: 21.6 µM (active); IC50 [27]: > 80 µM (inactive); AC50 [28]: 0.635 µM (active); AC50 [29]: 0.333 µM (active)
